Laboratory results: patent US20220218715A1, “NOVEL USE OF PYRROLO-PYRIDINE DERIVATIVE COMPOUND FOR PREVENTION AND/OR TREATMENT OF CANCER” (VORONOI CO., LTD., priority 2019, published 2022)

Legend:
PC-9 lung cancer cells = assay: Anticancer effect in mouse model with PC-9 lung cancer cells; assay type: in vivo, Balb/c Nude Mice; details: PC-9 model
Procedure: The PC-9 cell line was purchased from NanJing Cobioer Biological Technology Co., Ltd. Cells were kept in RPMI-1640 containing 10% FBS, and cultured in a 37° C. humidified cell culture incubator at 5% […]. All animal experiments were carried out according to the Animal Use and Management Guidelines of Shanghai Medicilon Inc. Under sterile conditions, 2×10^6 PC-9 tumor cells (0.1 mL, cell:Matrigel®=1:1) was administered to the right waist of each animal by S.C. administration. Tumor size and animal body weight were measured twice weekly, and clinical symptoms were recorded daily. The mice will be administered individually according to most recent body weight. The tumors were measured using calipers using two measurements, length (a) and width (b). The volume of the tumors was calculated individually as follows, from the two measured diameters of the tumors: tumor volume (mm^3)=(a×b^2)/2.

CAL-27 = assay: EGFR expression after treatment, western blot or phosphoarray; assay type: cell-based; details: FIG. 7
Procedure: For the Ba/F3 EGFR L858R/T790M/C797S cell line, Ba/F3 naive cells purchased from DSMZ were transfected with EGFR L858R/T790M/C797S […] DNA using lipofectamine, and a cell line selected using 1 μg/ml puromycin for 2 weeks was used. Here, the culture medium used was RPMI-1640 with 10% FBS and 1% penicillin streptomycin. The NCI-H2228 and CAL-27 cell lines were purchased from ATCC, and for culturing RPMI-1640 with 10% FBS and 1% penicillin streptomycin was used for NCI-H2228, while for CAL-27 DMEM with 10% FBS and 1% penicillin streptomycin was used.
As needed, culturing was performed for 1 hour with Cyclohexamine at 30 μg/mL concentration, followed by 15 minutes EGF treatment at a concentration of 100 ng/mL. For the phosphoarray experiment, DYRK1a siRNA was reacted with HEK293T cells for 48 hours at 30 nM concentration, confirming inhibition of DYRK1a expression in the cells. These were used as the control for the main experiment.

MC38 colon cancer = assay: Anticancer effect in MC38 colon cancer transplant mouse model; assay type: in vivo, female C57BL/6 mouse
Procedure: (§1) The 3LL cells were cultured in Hams F10:L15=3:7 culture medium, the EMT-6 cells were cultured in Waymouth's MB 752/1 culture medium, and the MC38 cells were cultured in a DMEM culture medium with 10% FBS and 1% penicillin streptomycin, at 37° C. in a 5% CO2 humidified cell culture incubator.
The mouse PD-1 antibody (BE-0146), PD-L1 antibody (BE-0101), and CTLA-4 antibody (BE-0131) were purchased from BioXcell.
(§2) All animal tests were carried out through WuXi AppTec.

EMT6 breast cancer = assay: Anticancer effect in EMT6 breast cancer transplant mouse model; assay type: in vivo, female C57BL/6 mouse; details: singular treatment, 45, 60, 75 mg/kg po BID, FIG. 6a
Procedure: as §1, §2

H1975 cell line = assay: Lung cancer cell colony formation inhibition; assay type: cell-based; details: concomitant treatment with Gefitinib or Osimertinib, vs single treatment or Harmine, from 10 days, FIG. 1
From the text: Specifically, the H1975 cell line was purchased from the ATCC (American Type Culture Collection, and RPMI-1640 with 10% FBS and 1% penicillin streptomycin was used.
The remaining colony-forming cells were fixed with methanol (1%) and formaldehyde (1%), then dyed with 0.5% crystal violet before photographing each well.

PHKG1 = biological target: T1, PHKG1 (Homo sapiens, UniProt Q16816); assay: scanMAX Kinase analysis panel (DiscoverX); assay type: binding; details: 1 μM in DMSO
T1 construct: purchased DiscoverX
From the text: (§3) [(Example Compound−Positive Control)/(Negative Control−Positive Control)×100]

PHKG2 = biological target: T2, PHKG2 (Homo sapiens, UniProt P15735); assay: scanMAX Kinase analysis panel (DiscoverX); assay type: binding; details: 1 μM in DMSO
T2 construct: purchased DiscoverX
From the text: as §3

CHEK2 = biological target: T3, CHEK2 (Homo sapiens, UniProt O96017); assay: scanMAX Kinase analysis panel (DiscoverX); assay type: binding; details: 1 μM in DMSO
T3 construct: purchased DiscoverX
From the text: as §3

MAPKAPK2 = biological target: T4, MAPKAPK2 (Homo sapiens, UniProt P49137); assay: scanMAX Kinase analysis panel (DiscoverX); assay type: binding; details: 1 μM in DMSO
T4 construct: purchased DiscoverX scanMAX Kinase analysis panel
From the text: as §3

ALK = biological target: T5, ALK (Homo sapiens, UniProt Q9UM73); assay: scanMAX Kinase analysis panel (DiscoverX); assay type: binding; details: 1 μM in DMSO
T5 construct: purchased DiscoverX
From the text: as §3

ABL1-nonphosphorylated = biological target: T6, ABL1-nonphosphorylated (Homo sapiens, UniProt P00519); assay: scanMAX Kinase analysis panel (DiscoverX); assay type: binding; details: 1 μM in DMSO
T6 construct: purchased DiscoverX
From the text: as §3

MYLK = biological target: T7, MYLK (Homo sapiens, UniProt Q15746); assay: scanMAX Kinase analysis panel (DiscoverX); assay type: binding; details: 1 μM in DMSO
T7 construct: purchased DiscoverX
From the text: as §3

STK39 = biological target: T8, STK39 (Homo sapiens, UniProt Q9UEW8); assay: scanMAX Kinase analysis panel (DiscoverX); assay type: binding; details: 1 μM in DMSO
T8 construct: purchased DiscoverX scanMAX Kinase analysis panel
From the text: as §3

[1] = biological target: T9, JAK1 (JH2domain-psudokinase) (Homo sapiens, UniProt P23458); assay: scanMAX Kinase analysis panel (DiscoverX); assay type: binding; details: 1 μM in DMSO
T9 construct: JAK1 (JH2domain-pseudokinase); purchased DiscoverX scanMAX Kinase analysis panel
From the text: as §3

LRRK2 = biological target: T10, LRRK2 (Homo sapiens, UniProt Q5S007); assay: scanMAX Kinase analysis panel (DiscoverX); assay type: binding; details: 1 μM in DMSO
T10 construct: purchased DiscoverX scanMAX Kinase analysis panel
From the text: as §3

PAK2 = biological target: T11, PAK2 (Homo sapiens, UniProt Q13177); assay: scanMAX Kinase analysis panel (DiscoverX); assay type: binding; details: 1 μM in DMSO
T11 construct: purchased DiscoverX
From the text: as §3

STK33 = biological target: T12, STK33 (Homo sapiens, UniProt Q9BYT3); assay: scanMAX Kinase analysis panel (DiscoverX); assay type: binding; details: 1 μM in DMSO
T12 construct: purchased DiscoverX
From the text: as §3

GAK = biological target: T13, GAK (Homo sapiens, UniProt O14976); assay: scanMAX Kinase analysis panel (DiscoverX); assay type: binding; details: 1 μM in DMSO
T13 construct: purchased DiscoverX
From the text: as §3

JNK3 = biological target: T14, JNK3 (Homo sapiens, UniProt P53779); assay: scanMAX Kinase analysis panel (DiscoverX); assay type: binding; details: 1 μM in DMSO
T14 construct: purchased DiscoverX scanMAX Kinase analysis panel
From the text: as §3

T7 sequence (Q15746 whole entry): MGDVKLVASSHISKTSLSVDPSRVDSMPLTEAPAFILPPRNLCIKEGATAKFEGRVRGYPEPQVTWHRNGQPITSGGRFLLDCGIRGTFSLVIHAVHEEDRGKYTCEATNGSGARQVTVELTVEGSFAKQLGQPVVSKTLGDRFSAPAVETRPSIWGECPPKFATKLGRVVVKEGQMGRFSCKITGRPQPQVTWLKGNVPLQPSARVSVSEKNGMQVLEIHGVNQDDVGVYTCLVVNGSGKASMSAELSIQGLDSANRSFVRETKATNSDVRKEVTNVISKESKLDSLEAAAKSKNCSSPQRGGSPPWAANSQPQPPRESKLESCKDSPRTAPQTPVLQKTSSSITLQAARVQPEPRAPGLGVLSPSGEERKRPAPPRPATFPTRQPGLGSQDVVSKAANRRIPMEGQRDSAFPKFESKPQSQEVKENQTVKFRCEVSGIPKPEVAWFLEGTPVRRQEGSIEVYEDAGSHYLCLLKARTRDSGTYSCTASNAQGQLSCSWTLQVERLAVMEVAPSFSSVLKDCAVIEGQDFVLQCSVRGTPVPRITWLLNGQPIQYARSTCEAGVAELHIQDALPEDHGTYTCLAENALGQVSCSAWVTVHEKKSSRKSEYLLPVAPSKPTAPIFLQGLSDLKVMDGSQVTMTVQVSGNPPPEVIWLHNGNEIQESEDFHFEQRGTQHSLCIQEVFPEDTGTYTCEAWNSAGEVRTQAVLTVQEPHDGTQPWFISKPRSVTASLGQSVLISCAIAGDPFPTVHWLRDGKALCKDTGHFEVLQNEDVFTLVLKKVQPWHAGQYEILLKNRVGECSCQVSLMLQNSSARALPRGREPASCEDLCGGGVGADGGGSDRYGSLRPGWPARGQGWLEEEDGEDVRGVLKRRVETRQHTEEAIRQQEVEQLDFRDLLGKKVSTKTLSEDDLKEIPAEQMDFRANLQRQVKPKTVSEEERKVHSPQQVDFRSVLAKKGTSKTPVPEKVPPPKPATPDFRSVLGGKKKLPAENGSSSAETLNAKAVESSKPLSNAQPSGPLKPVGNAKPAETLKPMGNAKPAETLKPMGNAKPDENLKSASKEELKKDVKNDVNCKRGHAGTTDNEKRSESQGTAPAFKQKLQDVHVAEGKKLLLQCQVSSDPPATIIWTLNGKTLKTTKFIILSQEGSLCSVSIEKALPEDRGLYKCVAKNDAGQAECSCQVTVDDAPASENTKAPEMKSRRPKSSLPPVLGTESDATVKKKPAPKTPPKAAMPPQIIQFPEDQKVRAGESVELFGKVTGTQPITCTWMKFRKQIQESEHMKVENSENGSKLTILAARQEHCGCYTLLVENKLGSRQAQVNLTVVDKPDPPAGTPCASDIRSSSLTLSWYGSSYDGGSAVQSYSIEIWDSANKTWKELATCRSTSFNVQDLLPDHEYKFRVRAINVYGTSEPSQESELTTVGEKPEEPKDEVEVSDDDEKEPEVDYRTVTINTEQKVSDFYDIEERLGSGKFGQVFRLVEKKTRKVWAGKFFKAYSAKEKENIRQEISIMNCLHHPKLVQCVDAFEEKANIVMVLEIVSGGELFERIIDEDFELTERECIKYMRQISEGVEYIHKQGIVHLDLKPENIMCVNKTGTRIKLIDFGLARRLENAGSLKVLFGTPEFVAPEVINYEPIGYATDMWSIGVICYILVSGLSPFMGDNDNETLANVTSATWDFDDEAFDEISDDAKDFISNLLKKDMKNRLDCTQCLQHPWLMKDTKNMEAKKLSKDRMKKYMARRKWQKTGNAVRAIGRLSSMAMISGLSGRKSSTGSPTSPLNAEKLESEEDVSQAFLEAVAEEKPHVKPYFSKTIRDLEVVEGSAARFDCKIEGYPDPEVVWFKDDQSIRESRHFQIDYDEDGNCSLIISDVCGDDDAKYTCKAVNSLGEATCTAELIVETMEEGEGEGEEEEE
T13 sequence (O14976 whole entry): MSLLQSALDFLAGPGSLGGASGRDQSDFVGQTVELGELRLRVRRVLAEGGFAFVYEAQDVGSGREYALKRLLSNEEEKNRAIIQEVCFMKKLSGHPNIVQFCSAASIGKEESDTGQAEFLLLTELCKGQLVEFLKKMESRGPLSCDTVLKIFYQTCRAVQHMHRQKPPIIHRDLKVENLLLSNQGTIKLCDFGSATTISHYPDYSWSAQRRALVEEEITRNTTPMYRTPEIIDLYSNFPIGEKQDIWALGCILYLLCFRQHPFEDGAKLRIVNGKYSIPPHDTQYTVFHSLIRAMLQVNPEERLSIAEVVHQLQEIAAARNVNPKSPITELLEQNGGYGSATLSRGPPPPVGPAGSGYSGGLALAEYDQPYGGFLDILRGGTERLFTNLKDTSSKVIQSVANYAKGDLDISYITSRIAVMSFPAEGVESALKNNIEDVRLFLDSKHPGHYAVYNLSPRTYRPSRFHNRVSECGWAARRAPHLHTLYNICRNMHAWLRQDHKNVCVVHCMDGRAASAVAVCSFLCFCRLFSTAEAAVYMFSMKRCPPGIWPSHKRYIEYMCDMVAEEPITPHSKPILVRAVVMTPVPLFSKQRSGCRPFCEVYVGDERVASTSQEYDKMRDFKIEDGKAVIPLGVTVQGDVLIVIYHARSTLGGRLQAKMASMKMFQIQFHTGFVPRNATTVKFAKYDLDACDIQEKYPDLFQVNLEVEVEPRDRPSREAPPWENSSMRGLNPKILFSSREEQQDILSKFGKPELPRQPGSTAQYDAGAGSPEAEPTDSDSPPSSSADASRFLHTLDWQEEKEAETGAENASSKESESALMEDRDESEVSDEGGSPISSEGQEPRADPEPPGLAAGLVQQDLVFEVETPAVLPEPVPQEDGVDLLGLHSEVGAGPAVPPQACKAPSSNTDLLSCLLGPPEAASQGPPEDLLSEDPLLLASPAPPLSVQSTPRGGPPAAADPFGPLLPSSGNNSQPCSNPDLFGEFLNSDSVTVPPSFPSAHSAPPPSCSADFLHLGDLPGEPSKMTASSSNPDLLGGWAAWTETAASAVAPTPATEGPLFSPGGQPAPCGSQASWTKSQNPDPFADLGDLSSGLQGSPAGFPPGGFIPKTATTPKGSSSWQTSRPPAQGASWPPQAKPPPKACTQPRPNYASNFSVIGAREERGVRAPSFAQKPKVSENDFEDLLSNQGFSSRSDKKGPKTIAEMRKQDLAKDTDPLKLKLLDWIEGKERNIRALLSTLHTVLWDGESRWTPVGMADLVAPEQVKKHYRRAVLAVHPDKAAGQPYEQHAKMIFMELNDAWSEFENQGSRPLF
T9 sequence (P23458 583-855 limits assumed): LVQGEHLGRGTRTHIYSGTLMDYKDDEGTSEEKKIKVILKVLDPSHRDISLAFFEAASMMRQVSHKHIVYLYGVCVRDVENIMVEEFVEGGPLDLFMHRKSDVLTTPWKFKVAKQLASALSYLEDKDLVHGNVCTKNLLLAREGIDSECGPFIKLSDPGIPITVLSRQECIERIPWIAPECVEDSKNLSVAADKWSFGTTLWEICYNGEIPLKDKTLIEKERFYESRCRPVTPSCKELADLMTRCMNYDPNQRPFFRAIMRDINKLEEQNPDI
T11 sequence (Q13177 whole entry): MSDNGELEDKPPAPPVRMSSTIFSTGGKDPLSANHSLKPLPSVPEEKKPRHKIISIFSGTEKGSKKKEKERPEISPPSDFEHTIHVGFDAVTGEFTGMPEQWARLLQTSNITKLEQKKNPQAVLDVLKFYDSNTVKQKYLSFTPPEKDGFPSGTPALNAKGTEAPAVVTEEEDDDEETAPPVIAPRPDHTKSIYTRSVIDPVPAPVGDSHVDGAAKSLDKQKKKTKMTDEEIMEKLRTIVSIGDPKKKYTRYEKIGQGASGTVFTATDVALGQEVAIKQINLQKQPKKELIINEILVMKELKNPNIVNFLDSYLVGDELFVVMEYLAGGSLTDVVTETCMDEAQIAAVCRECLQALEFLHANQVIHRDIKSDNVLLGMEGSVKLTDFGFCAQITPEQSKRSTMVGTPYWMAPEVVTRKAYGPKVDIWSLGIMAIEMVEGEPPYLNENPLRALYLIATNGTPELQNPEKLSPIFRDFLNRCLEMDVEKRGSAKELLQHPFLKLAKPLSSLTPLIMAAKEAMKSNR
T14 sequence (P53779 whole entry): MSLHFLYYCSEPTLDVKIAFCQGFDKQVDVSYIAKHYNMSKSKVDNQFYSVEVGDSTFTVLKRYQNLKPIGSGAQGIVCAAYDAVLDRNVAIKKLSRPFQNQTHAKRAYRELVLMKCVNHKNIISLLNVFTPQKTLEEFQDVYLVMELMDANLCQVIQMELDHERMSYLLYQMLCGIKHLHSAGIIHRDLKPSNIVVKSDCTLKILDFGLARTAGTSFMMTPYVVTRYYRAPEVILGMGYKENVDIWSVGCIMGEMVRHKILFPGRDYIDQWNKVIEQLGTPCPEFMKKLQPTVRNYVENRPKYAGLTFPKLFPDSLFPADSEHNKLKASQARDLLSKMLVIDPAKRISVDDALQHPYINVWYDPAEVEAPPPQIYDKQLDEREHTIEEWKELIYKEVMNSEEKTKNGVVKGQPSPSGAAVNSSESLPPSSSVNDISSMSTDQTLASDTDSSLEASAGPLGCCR
T4 sequence (P49137 whole entry): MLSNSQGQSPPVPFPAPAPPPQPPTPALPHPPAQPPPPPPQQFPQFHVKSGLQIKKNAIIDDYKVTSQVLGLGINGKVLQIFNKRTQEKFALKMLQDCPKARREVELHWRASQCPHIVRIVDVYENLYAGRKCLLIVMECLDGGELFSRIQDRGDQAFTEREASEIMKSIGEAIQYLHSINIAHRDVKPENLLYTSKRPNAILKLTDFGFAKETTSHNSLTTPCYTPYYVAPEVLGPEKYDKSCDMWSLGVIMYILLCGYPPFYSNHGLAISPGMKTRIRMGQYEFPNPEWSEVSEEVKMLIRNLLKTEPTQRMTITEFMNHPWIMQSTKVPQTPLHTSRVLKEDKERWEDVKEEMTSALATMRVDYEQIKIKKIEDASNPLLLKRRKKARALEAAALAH

inhibition at 1 µM (PHKG1): ≥ 59% | inhibition at 1 µM (PHKG2): ≥ 59% | inhibition at 1 µM (CHEK2): 40 to 59% | inhibition at 1 µM (MAPKAPK2): 40 to 59% | inhibition at 1 µM (ALK): ≥ 59% | inhibition at 1 µM (ABL1-nonphosphorylated): 40 to 59% | inhibition at 1 µM (MYLK): ≥ 59% | inhibition at 1 µM (STK39): 40 to 59% | inhibition at 1 µM [1]: 40 to 59% | inhibition at 1 µM (LRRK2): 40 to 59% | inhibition at 1 µM (PAK2): ≥ 59% | inhibition at 1 µM (STK33): ≥ 59% | inhibition at 1 µM (GAK): ≥ 59% | inhibition at 1 µM (JNK3): 40 to 59%
SMILES: CCNc1cc(Nc2ccc(C(=O)N3CCC(N4CCOCC4)CC3)cc2OC)nc2[nH]cc(C(F)(F)F)c12 [Compound 1, (4-((4-(ethylamino)-3-(trifluoromethyl)-1H-pyrrolo[2,3-b]pyridine-6-yl)amino)-3-methoxyphenyl) (4-morpholinopiperidine-1-yl)methanone]
anticancer effect (PC-9 lung cancer cells; Compound 1 20 or 40 mg/kg concomitant with Gefitinib 10 mg/kg, PO QD, vs Gefitinib alone, FIG. 4): substantially reduced lung cancer (PC-9) cells | anticancer effect (PC-9 lung cancer cells; Compound 1 20 or 40 mg/kg concomitant with Osimertinib 3 mg/kg, PO QD, vs Osimertinib alone, FIG. 3): substantially reduced lung cancer (PC-9) cells | anticancer effect (PC-9 lung cancer cells; singular treatment with Compound 1, 40 mg/kg PO QD): no anticancer effect | EGFR expression (CAL-27): reduced EGFR expression | p-EGFR (Y-1086) expression (CAL-27; phosphoarray, 2 μM, 48 hours): Reduction in expression | tumor suppression effect (MC38 colon cancer; concomitant with PD-1, PD-L1 and CTLA-4 antibodies 10 mg/kg IP BIW, FIG. 6c): improved concomitant effect | tumor suppression effect (MC38 colon cancer; singular treatment, 45, 60, 75 mg/kg po BID, FIG. 6a): insignificant tumor suppression effect | tumor suppression effect (EMT6 breast cancer): insignificant tumor suppression effect | colony formation inhibition (H1975 cell line): substantially inhibit formation of lung cancer cell colonies
